Measured values from PMC3814616, “BRAF inhibitors suppress apoptosis through off-target inhibition of JNK signaling” (eLife, 2013).

Tests used:
[1] = test system: cSCC (SRB1, SRB12, COLO16) and HaCaT cell lines; test: Long-term proliferation (serial passage and counting, at least 28 days); assay type: cell-based, human
[2] = test system: Hairless mice; test: UV-driven cSCC development in chronically-irradiated Hairless mice; assay type: in vivo, mouse
From the text: We also used the Hairless mouse model of squamous cell carcinoma to assess whether PLX4720 would affect UV-driven tumor development. This is particularly relevant since it appears that UV exposure is an important initiating event in BRAFi-accelerated cSCC ([Su et al., 2012]). Unlike the DMBA/TPA model, in which lesions almost universally harbor Hras mutations ([Brown et al., 1990]), the Hairless model has a very low frequency of Ras mutation in papillomas and carcinomas ([van Kranen et al., 1995]), more similar to sporadic human cSCC. […] Within 20 days of administration of drug, hyperkeratotic papules were visible on the backs of PLX4720-treated animals (Figure 5A,B), which steadily grew into cSCC over the following several weeks (Figure 5C,D). Within this period of 150 days (78 days of drug treatment), control-treated mice had not yet developed any visible lesions (Figure 5E). […]
Figure 5. […] (A and B) cDNA was reverse-transcribed from total RNA, PCR-amplified with the above primers (B) and analyzed by Sanger sequencing for mutations in both directions. No mutations in Hras, Kras, or Nras were detected in any of the papillomas (n = 5) or carcinomas (n = 3) isolated from PLX4720-treated mice. […]

[3] = test system: E1A and HRAS^G12V-transformed wild-type (WT) MEFs; test: Soft agar colony formation; assay type: cell-based, mouse; conditions: 0.2 μM and 1.0 μM, 4–6 weeks
[4] = test system: A375 and WM35 BRAF^V600E melanoma cell lines; test: Growth of BRAF^V600E melanoma cell lines; assay type: cell-based, human; conditions: bioequivalent doses: dabrafenib 0.05 μM, PLX4720 1.0 μM
[5] = test system: HaCaT cells; test: Doxorubicin-induced apoptosis, FACS; conditions: 1 μM, 24 hr
[6] = test system: phospho-JNK; test: Western blot of epidermis of irradiated mice; conditions: oral gavage 40–80 mg/kg twice a day, 10 kJ/m^2 UVB
[7] = test system: phospho-JNK and phospho-p38; conditions: A375 and WM35, 24 hr
[8] = test system: cleaved caspase-3; test: Immunohistochemistry of cSCC from vemurafenib-treated patients vs sporadic cSCC; assay type: in vivo, human; conditions: stained cells per mm^2 tumor, p=0.042
Procedure: (§1) Phospho-JNK and cleaved caspase-3 expression were assessed by immunohistochemistry and then quantified following normalization by unit area (mm^2) of tumor tissue (malignant keratinocytes) only (Figure 4A–D, Figure 4—figure supplement 1).
(§2) Cutaneous squamous cell carcinomas biopsied from patients treated with or without BRAF-inhibitor were obtained either under clinical trials (Roche) or separate IRB approval (LAB08-0750). Staining levels were quantified by counting positively labeled cells and dividing by the total area of the tumor tissue within each sample. To measure tumor areas, all samples were photographed, tumor cells outlined, and total pixel numbers calculated using included image analysis tools in Adobe Photoshop and standardized to a hemacytometer to convert to mm^2. To measure apoptosis in irradiated skin, pyknotic or dyskeratotic epidermal keratinocytes were counted and normalized to length (mm) of epidermis.

[9] = test system: phospho-JNK; test: as above; assay type: in vivo, human; conditions: stained cells per mm^2 tumor, p=0.013
Procedure: as §1, §2

[10] = molecular target: BRK (PTK6) (Homo sapiens, UniProt Q13882); conditions: ref Bollag et al., 2010; read-out: Published biochemical IC50; cited from earlier work
[11] = molecular target: SRMS (Homo sapiens, UniProt Q9H3Y6); parameters: method as in Bollag et al., 2010; conditions: ref Bollag et al., 2010; read-out: Published biochemical IC50; cited from earlier work
[12] = molecular target: T1, TAOK3 (Homo sapiens, UniProt Q9H2K8); parameters: method as in Bollag et al., 2010; conditions: ref Bollag et al., 2010; read-out: Published biochemical IC50; cited from earlier work
T1 construct: purchased KINOMEscan (DiscoveRx), San Diego, CA

[13] = 960 mg PO BID, ref Flaherty et al., 2010; cited from earlier work

Chain of SRMS (Q9H3Y6 whole entry): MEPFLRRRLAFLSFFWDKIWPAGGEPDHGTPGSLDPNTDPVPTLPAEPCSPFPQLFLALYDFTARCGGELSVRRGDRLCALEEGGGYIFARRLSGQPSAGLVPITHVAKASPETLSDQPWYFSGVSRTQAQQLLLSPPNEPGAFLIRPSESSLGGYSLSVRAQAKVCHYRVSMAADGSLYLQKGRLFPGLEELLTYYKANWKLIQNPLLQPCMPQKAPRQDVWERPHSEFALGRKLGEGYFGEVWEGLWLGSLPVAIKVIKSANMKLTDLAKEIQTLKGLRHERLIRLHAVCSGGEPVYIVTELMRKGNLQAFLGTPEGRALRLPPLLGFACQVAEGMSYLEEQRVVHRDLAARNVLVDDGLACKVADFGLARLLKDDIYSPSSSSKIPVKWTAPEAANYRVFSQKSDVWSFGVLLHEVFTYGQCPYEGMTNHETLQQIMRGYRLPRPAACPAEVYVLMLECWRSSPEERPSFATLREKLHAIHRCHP
T1 sequence (Q9H2K8 whole entry): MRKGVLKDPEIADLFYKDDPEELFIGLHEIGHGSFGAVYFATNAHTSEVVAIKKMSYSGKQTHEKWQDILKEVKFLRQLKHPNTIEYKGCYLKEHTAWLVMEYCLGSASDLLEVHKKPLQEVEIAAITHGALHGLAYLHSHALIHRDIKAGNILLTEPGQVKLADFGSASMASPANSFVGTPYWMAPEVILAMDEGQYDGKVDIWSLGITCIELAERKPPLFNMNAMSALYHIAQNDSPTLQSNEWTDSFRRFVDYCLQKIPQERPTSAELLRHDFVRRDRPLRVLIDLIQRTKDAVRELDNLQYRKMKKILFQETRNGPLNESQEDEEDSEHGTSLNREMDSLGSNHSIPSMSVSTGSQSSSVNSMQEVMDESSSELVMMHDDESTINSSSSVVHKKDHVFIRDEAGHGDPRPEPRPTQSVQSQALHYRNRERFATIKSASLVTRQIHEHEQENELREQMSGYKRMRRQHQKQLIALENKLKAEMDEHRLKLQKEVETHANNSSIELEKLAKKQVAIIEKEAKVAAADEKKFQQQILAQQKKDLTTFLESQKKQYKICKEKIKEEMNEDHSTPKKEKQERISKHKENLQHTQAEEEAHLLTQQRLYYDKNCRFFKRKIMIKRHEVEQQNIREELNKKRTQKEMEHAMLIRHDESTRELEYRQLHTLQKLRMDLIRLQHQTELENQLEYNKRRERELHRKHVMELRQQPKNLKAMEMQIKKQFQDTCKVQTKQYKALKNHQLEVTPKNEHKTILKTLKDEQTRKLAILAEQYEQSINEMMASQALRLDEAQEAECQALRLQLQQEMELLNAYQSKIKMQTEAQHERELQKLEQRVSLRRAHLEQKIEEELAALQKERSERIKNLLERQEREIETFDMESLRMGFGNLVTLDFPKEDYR
Chain of BRK (PTK6) (Q13882 whole entry): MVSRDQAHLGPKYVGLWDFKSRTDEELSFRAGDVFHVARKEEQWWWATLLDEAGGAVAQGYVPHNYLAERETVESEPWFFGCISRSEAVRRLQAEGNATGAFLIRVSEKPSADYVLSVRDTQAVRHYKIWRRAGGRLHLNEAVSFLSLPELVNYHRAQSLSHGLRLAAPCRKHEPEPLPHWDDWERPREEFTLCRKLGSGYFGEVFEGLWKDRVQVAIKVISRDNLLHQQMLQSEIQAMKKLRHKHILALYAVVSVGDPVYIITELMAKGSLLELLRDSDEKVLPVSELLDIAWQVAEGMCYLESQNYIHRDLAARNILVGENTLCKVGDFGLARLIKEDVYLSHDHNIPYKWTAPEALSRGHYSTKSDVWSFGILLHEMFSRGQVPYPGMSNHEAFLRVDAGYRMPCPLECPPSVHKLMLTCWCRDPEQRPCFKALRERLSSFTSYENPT

SMILES | proliferation of SRB12 and HaCaT cells ([1]; 1 μM, at least 28 days) | proliferation, all cells ([1]; 5 μM, at least 28 days) | proliferative advantage ([1]; cells without oncogenic RAS or BRAF mutations) | reduction in latency of papillomas and cSCC ([2]; chronically-irradiated Hairless mice) | time from start of drug to visible hyperkeratotic papules ([2]; drug-impregnated chow from day 72, 12.5 kJ/m^2 per week UVB) | colony formation [3] | growth of A375 and WM35 cells [4] | doxorubicin-induced apoptosis (Annexin V+, TMRE-low cells) [5] | UV-induced phospho-JNK in epidermis [6] | UV-mediated induction of phospho-p38 and phospho-JNK [7] | cleaved caspase-3 expression in cSCC of treated patients vs sporadic cSCC [8] | phospho-JNK expression in cSCC of treated patients vs sporadic cSCC [9] | IC50 [10] | IC50 [11] | IC50 [12] | mean sustained serum levels [13]
CCCS(=O)(=O)Nc1ccc(F)c(C(=O)c2c[nH]c3ncc(Cl)cc23)c1F [PLX4720] | slight decrement in the proliferation | decreased proliferation | no significant proliferative advantage | at least 10 weeks | ≤ 20 days | significant colony formation advantage | suppress the growth | significant decrease in apoptosis | significantly suppressed | significant suppression |  |  |  |  |  | 
CCCS(=O)(=O)Nc1ccc(F)c(C(=O)c2c[nH]c3ncc(-c4ccc(Cl)cc4)cc23)c1F [vemurafenib] |  |  |  |  |  |  |  |  |  |  | significant reductions | significant reductions | 213 nM | 18 nM | > 1000 nM | 86 µM
